From patent publication US5096884A, “Glidobactin PF-1 peptide antibiotics” (Bristol-Myers Squibb Company, priority 1990, dated 1992)
Converted amounts (≈) assume the structure as drawn. Read-outs that look alike come from different tables or passages of the source.

Key:
[1] = system: fungi; assay: In vitro antifungal activity; type: cell-based
Method: (§1) The minimum inhibitory concentrations (MIC's) of glidobactin PF-1 were determined for various microorganisms by a serial agar dilution method. Nutrient agar (Eiken) was used for bacteria and Sabouraud dextrose agar (Difco) for fungi. The inoculum size was adjusted to 10^4 CFU/mL for bacteria and 10^5 -10^7 for fungi. Invitro antibacterial and antifungal activities of glidobactin PF-1 are shown in Table 3 together with the activities found with glidobactin C.

[2] = system: Streptoccoccus faecalis A9612; assay: MIC by serial agar dilution method; type: cell-based; conditions: Nutrient agar; inoculum 10^4 CFU/mL
[3] = system: Escherichia coli NIHJ; assay: MIC by serial agar dilution method; type: cell-based; conditions: Nutrient agar; inoculum 10^4 CFU/mL
[4] = system: Sporothrix schenckii IFO 8158; assay: MIC by serial agar dilution method; type: cell-based; conditions: Sabouraud dextrose agar; inoculum 10^5-10^7
[5] = system: Trichophyton mentagrophytes D155; assay: MIC by serial agar dilution method; type: cell-based; conditions: Sabouraud dextrose agar; inoculum 10^5-10^7
[6] = system: Cryptococcus neoformans D49; assay: MIC by serial agar dilution method; type: cell-based; conditions: Sabouraud dextrose agar; inoculum 10^5-10^7
[7] = system: bacteria tested; assay: In vitro antibacterial activity; type: cell-based; conditions: at 100 μg/ml
Method: as §1

[8] = system: DNA synthesis in L1210 murine leukemia cells; assay: Inhibition of macromolecule synthesis, 3H-thymidine incorporation; type: cell-based; conditions: for IC50, DNA synthesis: L1210 cells, 3H-thymidine, 4 hrs; for inhibitory effect on DNA synthesis (in words): at 100 μg/mL, the highest concentration tested
Method: (§2) Inhibitory effects of glidobactins A and PF-1 on macromolecule biosynthesis (DNA, RNA, and protein) were determined in cultured L1210 murine leukemia cells. The cells (5×10^5 cells/mL) were incubated with test compounds at 37° C. for 15 min and further incubated for 4 hrs after the addition of labeled precursor, ^3 H-thymidine, ^14 C-uridine, or ^3 H-leucine into the cultured mixture. After washing with chilled 5% trichloroacetic acid solution, the radioactivity incorporated into the acid-insoluble fraction of the cells was determined by a liquid scintillation counter.

[9] = system: Piricularia oryzae D9; conditions: Sabouraud dextrose agar; inoculum 10^5-10^7
[10] = system: P388 Leukemia (ip); conditions: for T/C % of MST: ip, QD1→9, ≥125% significant; for maximum T/C value: P388 leukemia, ip daily for 9 days
Method: (§3) In vivo antitumor activity of glidobactin PF-1 was determined in experimental mouse tumor systems. Female CDF1 and male BDF1 mice were intraperitoneally inoculated with 0.4 mL of diluted ascitic fluid containing 10^6 lymphocytic leukemia P388 cells and 0.5 mL of 10% melanotic melanoma B16 brei, respectively. Test compounds were intraperitoneally administered daily for 9 days starting from 1 day after the tumor implantation.

[11] = system: B16 Melanoma (ip); conditions: for T/C % of MST: ip, QD1→9, ≥125% significant; for antitumor activity against ip-B16 melanoma (in words): at the doses tested
Method: as §3

[12] = system: B16-F10 (murine melanoma) cells; type: cell-based; conditions: for IC50: B16-F10 cells, 72 hrs
Method: (§4) Glidobactin PF-1 and glidobactin A were tested for in vitro cytotoxicity against murine tumor cell lines and for in vivo antitumor activity in mice. Mitomycin C was used as a reference compound in both in vitro and in vivo experiments. B16-F10 (murine melanoma) cells were grown to the logarithmic phase in an enriched Eagle minimum essential medium supplemented with fetal calf serum (FCS, 10%) and kanamycin (60 μg/ml). P388 (murine lymphocytic leukemia) cells were in RPMI1640 medium supplemented with FCS (10%), penicillin (100 U/ml), and streptomycin (100 μg/ml). B16-F10 and P388 cells were harvested and implanted into wells of a 96-well (for B16-F10 cells) and a 24-well (for P388 cells) tissue culture plate with test materials at the inoculum sizes of 3×10^4 and 2×10^4 cells/mL, respectively. They were incubated at 37° C. in a humidified atmosphere of 5% CO2 and 95% air for 72 hrs. The cytotoxicity against B16-F10 cells was colorimetrically determined at 540 nm after staining viable cells with 0.006% neutral red solution. As for P388 cells, the number of viable cells was determined by a Coulter counter.

[13] = system: P388 (murine lymphocytic leukemia) cells; type: cell-based; conditions: for IC50: P388 cells, 72 hrs
Method: as §4

[14] = system: protein synthesis in L1210 murine leukemia cells; assay: Inhibition of macromolecule synthesis, 3H-leucine incorporation; type: cell-based; conditions: for effect on protein synthesis (in words) / IC50, Protein synthesis: L1210 cells; for IC50, Protein synthesis: 3H-leucine, 4 hrs
Method: as §2

[15] = system: Candida albicans IAM 4888; assay: MIC by serial agar dilution method; type: cell-based; conditions: Sabouraud dextrose agar; inoculum 10^5-10^7
[16] = system: Pseudomonas aeruginosa A9930; assay: MIC by serial agar dilution method; type: cell-based; conditions: Nutrient agar; inoculum 10^4 CFU/mL
[17] = system: Candida albicans A9540; assay: MIC by serial agar dilution method; type: cell-based; conditions: Sabouraud dextrose agar; inoculum 10^5-10^7
[18] = system: Staphyloccoccus aureus 209P; assay: MIC by serial agar dilution method; type: cell-based; conditions: Nutrient agar; inoculum 10^4 CFU/mL
[19] = system: Klebsiella pneumoniae D 11; assay: MIC by serial agar dilution method; type: cell-based; conditions: Nutrient agar; inoculum 10^4 CFU/mL
[20] = system: Fusarium moniliforme A2284; assay: MIC by serial agar dilution method; type: cell-based; conditions: Sabouraud dextrose agar; inoculum 10^5-10^7
[21] = system: Mucor spinosus IFO 5317; assay: MIC by serial agar dilution method; type: cell-based; conditions: Sabouraud dextrose agar; inoculum 10^5-10^7
[22] = system: RNA synthesis in L1210 murine leukemia cells; assay: Inhibition of macromolecule synthesis, 14C-uridine incorporation; type: cell-based; conditions: for IC50, RNA synthesis: L1210 cells, 14C-uridine, 4 hrs; for inhibitory effect on RNA synthesis (in words): at 100 μg/mL, the highest concentration tested
Method: as §2

[23] = system: Aspergillus fumigatus IAM 2530; assay: MIC by serial agar dilution method; type: cell-based; conditions: Sabouraud dextrose agar; inoculum 10^5-10^7
[24] = system: Blastomyces dermatitidis IFO 8144; assay: MIC by serial agar dilution method; type: cell-based; conditions: Sabouraud dextrose agar; inoculum 10^5-10^7
[25] = system: Bacillus subtilis PCI 219; assay: MIC by serial agar dilution method; type: cell-based; conditions: Nutrient agar; inoculum 10^4 CFU/mL

## CCC=CCC=CCCC=CC=CC(=O)NC(C(=O)NC1CC(O)CCNC(=O)C=CC(C)NC1=O)C(C)O (stereo not shown) [Glidobactin PF-1, glidobactin PF-1]
In methanol, ethanol, n-butanol, and dimethyl sulfoxide
  solubility (in words): soluble
In n-hexane and water
  solubility (in words): insoluble
[1]
  activity against fungi (in words): moderate activity
[1]; relative to glidobactin C
  intrinsic antifungal activity compared with glidobactin C (in words): considerably weaker
[2]
  MIC: > 100 µg/mL
[3]
  MIC: > 100 µg/mL
[4]
  MIC: > 50 µg/mL
[5]
  MIC: 12.5 µg/mL (≈ 22.9 µM)
[6]
  MIC: 25 µg/mL (≈ 45.9 µM)
[7]
  inhibition of the bacteria tested (in words): did not inhibit
[8]
  IC50, DNA synthesis: > 100 µg/mL
  inhibitory effect on DNA synthesis (in words): no significant inhibitory effect
[9]
  MIC: 12.5 µg/mL (≈ 22.9 µM)
[10]; P388, 0.016 mg/kg/day
  T/C % of MST: 118%
[10]; P388, 0.031 mg/kg/day
  T/C % of MST: 129%
[10]; P388, 0.063 mg/kg/day
  T/C % of MST: 133%
[10]; P388, 0.13 mg/kg/day
  T/C % of MST: 160%
[10]; P388, 0.25 mg/kg/day
  T/C % of MST: 170%
[10]; P388, 0.5 mg/kg/day
  T/C % of MST: 174%
[10]; P388, 1 mg/kg/day
  T/C % of MST: 130%
[10]
  maximum T/C value: 174%
[10]; in vivo P388, relative to glidobactin A
  potency against P388 relative to glidobactin A: approximately 4 times
[11]; B16, 0.13 mg/kg/day
  T/C % of MST: 103%
[11]; B16, 0.25 mg/kg/day
  T/C % of MST: 118%
[11]; B16, 0.5 mg/kg/day
  T/C % of MST: 113%
[11]; B16, 1 mg/kg/day
  T/C % of MST: 111%
[11]
  antitumor activity against ip-B16 melanoma (in words): no significant antitumor activity
[12]
  cytotoxicity (in words): potent cytotoxicity
  IC50: 0.07 µg/mL (≈ 0.129 µM)
[13]
  cytotoxicity (in words): potent cytotoxicity
  IC50: 0.010 µg/mL (≈ 0.0184 µM)
[14]
  effect on protein synthesis (in words): inhibited protein synthesis
  IC50, Protein synthesis: 0.07 µg/mL (≈ 0.129 µM)
[14]; relative to glidobactin A
  inhibitory activity on protein synthesis relative to glidobactin A: approximately half
[15]
  MIC: 12.5 µg/mL (≈ 22.9 µM)
[16]
  MIC: > 100 µg/mL
[17]
  MIC: 6.3 µg/mL (≈ 11.6 µM)
[18]
  MIC: > 100 µg/mL
[19]
  MIC: > 100 µg/mL
[20]
  MIC: > 50 µg/mL
[21]
  MIC: 3.1 µg/mL (≈ 5.69 µM)
[22]
  IC50, RNA synthesis: > 100 µg/mL
  inhibitory effect on RNA synthesis (in words): no significant inhibitory effect
[23]
  MIC: 12.5 µg/mL (≈ 22.9 µM)
[24]
  MIC: 12.5 µg/mL (≈ 22.9 µM)
[25]
  MIC: > 100 µg/mL

## CCCCCCCCC/C=C/C=C/C(=O)N[C@H](C(=O)N[C@H]1C[C@@H](O)CCNC(=O)/C=C\[C@H](C)NC1=O)[C@@H](C)O [Glidobactin C, glidobactin C]
[2]
  MIC: > 100 µg/mL
[3]
  MIC: > 100 µg/mL
[4]
  MIC: > 50 µg/mL
[5]
  MIC: 0.8 µg/mL (≈ 1.46 µM)
[6]
  MIC: 0.8 µg/mL (≈ 1.46 µM)
[9]
  MIC: 6.3 µg/mL (≈ 11.5 µM)
[15]
  MIC: 0.4 µg/mL (≈ 0.729 µM)
[16]
  MIC: > 100 µg/mL
[17]
  MIC: 0.2 µg/mL (≈ 0.364 µM)
[18]
  MIC: > 100 µg/mL
[19]
  MIC: > 100 µg/mL
[20]
  MIC: > 50 µg/mL
[21]
  MIC: 0.8 µg/mL (≈ 1.46 µM)
[23]
  MIC: 1.6 µg/mL (≈ 2.92 µM)
[24]
  MIC: 3.1 µg/mL (≈ 5.65 µM)
[25]
  MIC: > 100 µg/mL

## CO[C@@]12[C@H](COC(N)=O)C3=C(C(=O)C(C)=C(N)C3=O)N1C[C@@H]1N[C@@H]12 [Mitomycin C]
[8]
  IC50, DNA synthesis: 1.7 µg/mL (≈ 5.08 µM)
[10]; P388, 0.031 mg/kg/day
  T/C % of MST: 115%
[10]; P388, 0.063 mg/kg/day
  T/C % of MST: 140%
[10]; P388, 0.13 mg/kg/day
  T/C % of MST: 145%
[10]; P388, 0.25 mg/kg/day
  T/C % of MST: 170%
[10]; P388, 0.5 mg/kg/day
  T/C % of MST: 190%
[10]; P388, 1 mg/kg/day
  T/C % of MST: 225%
[12]
  IC50: 0.50 µg/mL (≈ 1.5 µM)
[14]
  IC50, Protein synthesis: > 100 µg/mL
[22]
  IC50, RNA synthesis: > 100 µg/mL

## CCCCCCC/C=C/C=C/C(=O)N[C@H](C(=O)N[C@H]1C[C@@H](O)CCNC(=O)/C=C/[C@H](C)NC1=O)[C@@H](C)O [Glidobactin A, glidobactin A]
[8]
  IC50, DNA synthesis: > 100 µg/mL
  inhibitory effect on DNA synthesis (in words): no significant inhibitory effect
[10]; P388, 0.031 mg/kg/day
  T/C % of MST: 100%
[10]; P388, 0.063 mg/kg/day
  T/C % of MST: 110%
[10]; P388, 0.13 mg/kg/day
  T/C % of MST: 130%
[10]; P388, 0.25 mg/kg/day
  T/C % of MST: 150%
[10]; P388, 0.5 mg/kg/day
  T/C % of MST: 155%
[10]; P388, 1 mg/kg/day
  T/C % of MST: 190%
[10]
  maximum T/C value: 190%
[11]; B16, 0.13 mg/kg/day
  T/C % of MST: 97%
[11]; B16, 0.25 mg/kg/day
  T/C % of MST: 100%
[11]; B16, 0.5 mg/kg/day
  T/C % of MST: 113%
[11]; B16, 1 mg/kg/day
  T/C % of MST: 116%
[11]
  antitumor activity against ip-B16 melanoma (in words): no significant antitumor activity
[12]
  cytotoxicity (in words): potent cytotoxicity
  IC50: 0.04 µg/mL (≈ 0.0768 µM)
[13]
  cytotoxicity (in words): potent cytotoxicity
  IC50: 0.008 µg/mL (≈ 0.0154 µM)
[14]
  effect on protein synthesis (in words): inhibited protein synthesis
  IC50, Protein synthesis: 0.03 µg/mL (≈ 0.0576 µM)
[22]
  IC50, RNA synthesis: > 100 µg/mL
  inhibitory effect on RNA synthesis (in words): no significant inhibitory effect
